Legend:
Assay type in all cases: biochemical
[1] = biological target: T1, ST3Gal II (Cloned rat liver) (Rattus norvegicus, UniProt Q11205); assay: Forward (direct) sialyltransferase activity, ST3Gal-II; settings: donor CMP-[9-3H]NeuAc, acceptor [5], varying nucleotide concentrations
T1 construct: purchased Calbiochem
T1 sequence (Q11205 1-350): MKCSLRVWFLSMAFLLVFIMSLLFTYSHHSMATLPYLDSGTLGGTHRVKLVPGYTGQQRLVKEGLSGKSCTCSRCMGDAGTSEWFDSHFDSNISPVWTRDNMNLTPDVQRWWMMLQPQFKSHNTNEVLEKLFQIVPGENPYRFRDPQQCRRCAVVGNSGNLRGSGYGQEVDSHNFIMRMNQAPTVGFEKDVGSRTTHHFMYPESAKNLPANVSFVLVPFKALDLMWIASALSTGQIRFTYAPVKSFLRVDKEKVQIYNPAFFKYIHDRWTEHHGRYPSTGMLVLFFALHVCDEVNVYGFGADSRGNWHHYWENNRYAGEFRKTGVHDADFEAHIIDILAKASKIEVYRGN
Method: (§1) FIG. 5. Effect of 5′-nucleotides on direct sialyltransferase activity (panel a) and reverse sialylation (panel b). a. Varying concentrations of 5′-CDP or 5′-CMP were added to 100 mM acceptor (specified below), 0.15 mM CMP-[9-^3H]NeuAc and either ST3Gal-II (0.2 mU), ST3Gal-III (0.5 mU) or ST6Gal-I (0.2 mU) for 4 h at 37° C. Products were separated using Sep-Pak C18 method. ST3Gal-III activity was measured using acceptor 4-O-MeGalβ1,4GlcNAcβ-O-Bn in the presence of 5′-CDP (●) and 5′-CMP (◯). ST6Gal-I activity was measured using Gal β1,4GlcNAcβ-O-Bn in the presence of 5′-CDP (▴) and 5′-CMP (Δ). ST3Gal-II using D-Fucβ1,3GalNAcα-O-Bn in the presence of 5′-CDP (▪) and 5′-CMP (□). b) Reverse sialylation by ST3Gal-II was measured in reaction mixtures containing 0.2 mM [9-^3H] [3], 7 mM 5′-CMP, ST3Gal-II (2 mU), D-Fucβ1,3GalNAcα-OBn (3.0 mM) and varying doses of either 5′-CDP (▴), 5′-UMP (◯) or 2-deoxy 5′-CMP (●) for 4 hours at 37° C. Reaction product ([9-^3H]NeuAcα2,3DFucβ1,3 GalNAcα-O-Bn) was isolated using Sep-Pak C18 method. In some runs, where was absent, the amount of CMP-NeuAc produced was quantified using the Dowex-1 Formate method in the presence of varying doses of 5′-CDP (▪).
(§2) Besides pH other distinctions were also observed between forward and reverse sialylation. In this regard, citrate ions tended to inhibit forward sialylation but not reverse sialylation activity (Table V). For these studies, the effect of citrate on the forward sialylation activity of ST3Gal-I, ST3Gal-II, ST3Gal-III and ST6Gal-I was examined. Reverse sialylation activity of ST3Gal-II was also measured in terms of: i) the formation of CMP-NeuAc from 5′-CMP; and ii) the transfer of NeuAc from this newly synthesized CMP-NeuAc to another O-glycan. From the data (Table V), it is evident that citrate inhibits the direct sialylation activity of all the enzymes mentioned above. However, both the synthesis of CMP-[9-^3H]NeuAc from 5′-CMP as well as the synthesis of [9-^3H]NeuAcα2,3D-Fucβ1,3 GalNAcα-O-Bn using the newly formed CMP-[9-^3H]NeuAc through reverse sialylation of ST3Gal-II was not inhibited by citrate.
(§3) The effect of 5′-nucleotides on forward sialylation (FIG. 5a) and reverse sialylation (FIG. 5b) were examined. […] The overall formation of [9-^3H]NeuAcα2,3D-Fucβ1,3 GalNAcα-O-Bn by the two-step reverse sialylation process, however, was inhibited by 5′-CDP and this is consistent with the finding that 5′-CDP inhibits forward sialylation in the second step.

[2] = biological target: T2, ST3Gal III (Cloned rat liver) (Rattus norvegicus, UniProt Q02734); assay: Forward (direct) sialyltransferase activity, ST3Gal-III; settings: donor CMP-[9-3H]NeuAc, acceptor 4-O-MeGalβ1,4GlcNAcβ-O-Bn
T2 construct: purchased Calbiochem
T2 sequence (Q02734 1-374): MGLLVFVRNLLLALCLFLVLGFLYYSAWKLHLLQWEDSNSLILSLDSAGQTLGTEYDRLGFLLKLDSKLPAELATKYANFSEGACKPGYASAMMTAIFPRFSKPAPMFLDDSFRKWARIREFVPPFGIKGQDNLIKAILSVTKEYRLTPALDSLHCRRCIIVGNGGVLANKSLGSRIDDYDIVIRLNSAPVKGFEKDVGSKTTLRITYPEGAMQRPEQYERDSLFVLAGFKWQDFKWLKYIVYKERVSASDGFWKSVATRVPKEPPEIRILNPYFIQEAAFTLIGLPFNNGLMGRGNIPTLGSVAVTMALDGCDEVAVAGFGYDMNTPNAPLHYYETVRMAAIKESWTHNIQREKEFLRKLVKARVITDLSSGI
Method: as §1, §2, §3

[3] = biological target: T3, ST6Gal I (Cloned rat liver) (Rattus norvegicus, UniProt P13721); assay: Forward (direct) sialyltransferase activity, ST6Gal-I; settings: donor CMP-[9-3H]NeuAc, acceptor Galβ1,4GlcNAcβ-O-Bn
T3 construct: purchased Calbiochem
T3 sequence (P13721 1-403): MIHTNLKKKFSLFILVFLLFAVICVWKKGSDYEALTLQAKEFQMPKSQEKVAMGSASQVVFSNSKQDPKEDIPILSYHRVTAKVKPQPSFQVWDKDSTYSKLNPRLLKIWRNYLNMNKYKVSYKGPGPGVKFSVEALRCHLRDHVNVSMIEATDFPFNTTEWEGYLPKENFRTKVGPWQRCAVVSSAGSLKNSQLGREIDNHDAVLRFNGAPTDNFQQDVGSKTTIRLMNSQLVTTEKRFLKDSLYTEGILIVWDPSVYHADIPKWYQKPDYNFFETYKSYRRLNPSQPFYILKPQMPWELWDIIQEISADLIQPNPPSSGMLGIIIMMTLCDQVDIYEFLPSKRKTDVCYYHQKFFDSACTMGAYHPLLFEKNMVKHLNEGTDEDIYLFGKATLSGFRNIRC
Method: as §1, §2, §3

Nc1ccn([C@@H]2O[C@H](COP(=O)(O)OP(=O)(O)O)[C@@H](O)[C@H]2O)c(=O)n1 [5′-CDP]
inhibited: Effect on forward sialylation activity of ST3Gal-II [1] | Effect on forward sialylation activity of ST3Gal-III [2] | Effect on forward sialylation activity of ST6Gal-I [3]

Nc1ccn([C@@H]2O[C@H](COP(=O)(O)O)[C@@H](O)[C@H]2O)c(=O)n1 [5′-CMP, Cytidine 5′-monophosphate]
inhibited: Effect on forward sialylation activity of ST3Gal-II [1] | Effect on forward sialylation activity of ST3Gal-III [2] | Effect on forward sialylation activity of ST6Gal-I [3]
